Source: patent US20160082087A1, “WHITENING PROMOTING AGENT OR ATOPIC DERMATITIS AMELIORATING AGENT” (NITTA GELATIN INC., priority 2013, published 2016)
Marks after values point to notes of the source that are not given here. Square brackets hold non-standard residues; d marks the D form. Ends that are not written are not given here. Hyp = O=C(O)[C@@H]1C[C@@H](O)CN1

Assays:
Type in all cases: cell-based, human
[1] = system: endoserine-1 (ET-1); experiment: ET-1 expression suppression test (real time PCR); details: 0.5 mM, 24 hours, NHEK (NB), control 1.00, GAPDH corrected
Procedure: (§1) A normal human epidermal keratinocyte NHEK (NB) (available from KURABO INDUSTRIES LTD.) was used. The cells were precultured in HuMedia-KG2 (available from KURABO INDUSTRIES LTD.), and 1.5×10^4 cells/mL×5 mL (7.5×10^4 cells/dish) were cultured in a 60 mm laboratory dish for two days. After confirming that the cells were subconfluent, the medium was replaced by 5 mL of HuMedia-KB2 (available from KURABO INDUSTRIES LTD.). Samples were added in respective concentrations, and allowed to react for 24 hours (ET-1, K10), 48 hours (TGM1, ivl, HAS2), and 72 hours (FLG). Total RNA was extracted from the cells, reverse transcribed, and subjected to real time PCR. In the real time PCR, as target genes, endoserine-1 (ET-1; Hs00174961_m1), keratin 10 (K10; Hs01043114_g1), transglutaminase 1 (TGM1; Hs01070310_m1), involucrin (ivl; Hs00846307_s1), filaggrin (FLG; Hs00856927_g1) and hyaluronic acid synthase 2 (HAS2; Hs00193435_m1) were measured. GAPDH was used as a correction gene. Calculation was conducted by using a calibration curve method, and FAM pigment of TaqMan Gene Expression was used in primers and probes.
(§2) For each peptide or the like of Examples 1 to 13 and Comparative Examples 1 to 27, RNA expression amounts of endoserine-1 (ET-1), keratin 10 (K10), transglutaminase 1 (TGM1), involucrin (ivl), filaggrin (FLG) and hyaluronic acid synthase 2 (HAS2) were measured. Values in the tables are each average value±standard deviation, and *, ** and *** denote that they are significant with P<0.05, P<0.01, and P<0.001, respectively with respect to the control in Paired-t-test.

[2] = system: keratin 10 (K10); experiment: K10 expression promotion test (real time PCR); details: 0.5 mM, 24 hours, NHEK (NB), control 1.00, GAPDH corrected
Procedure: as §1, §2

[3] = system: transglutaminase 1 (TGM1); experiment: TGM1 expression promotion test (real time PCR); details: 0.5 mM, 48 hours, NHEK (NB), control 1.00, GAPDH corrected
Procedure: as §1, §2

[4] = system: involucrin (ivl); experiment: ivl expression promotion test (real time PCR); details: 0.5 mM, 48 hours, NHEK (NB), control 1.00, GAPDH corrected
Procedure: as §1, §2

[5] = system: filaggrin (FLG); experiment: FLG expression promotion test (real time PCR); details: 0.5 mM, 72 hours, NHEK (NB), control 1.00, GAPDH corrected
Procedure: as §1, §2

[6] = system: hyaluronic acid synthase 2 (HAS2); experiment: HAS2 expression promotion test (real time PCR); details: 0.5 mM, 48 hours, NHEK (NB), control 1.00, GAPDH corrected
Procedure: as §1, §2

Molecule | Endoserine-I RNA expression amount [1] | Keratin 10 RNA expression amount [2] | Transglutaminase 1 RNA expression amount [3] | Involucrin RNA expression amount [4] | Filaggrin RNA expression amount [5] | Hyaluronic acid synthase 2 RNA expression amount [6]
Pro-Ala-Gly [Example 4] | 0.67 ± 0.01** | 3.98 ± 0.23*** | 3.11 ± 0.02*** | 2.75 ± 0.03*** | 5.33 ± 1.25*** | 2.99 ± 1.03**
NCC(=O)O [Comparative Example 9, L-glycine] | 1.01 ± 0.05** | 0.81 ± 0.05 | 0.75 ± 0.01** | 0.71 ± 0.03** | 0.87 ± 0.05 | 0.61 ± 0.40**
Ser-[Hyp]-Gly [Example 10] | 0.89 ± 0.07* | 1.77 ± 0.04** | 1.21 ± 0.01 | 1.59 ± 0.05* | 2.29 ± 0.26** | 2.14 ± 0.89*
Glu-[Hyp]-Gly [Example 8] | 0.71 ± 0.03 | 2.39 ± 0.02* | 1.69 ± 0.01*** | 1.89 ± 0.03* | 2.92 ± 0.89** | 2.56 ± 0.45**
Pro-Ala [Comparative Example 6] | 1.09 ± 0.01** | 0.70 ± 0.04 | 0.94 ± 0.13 | 0.81 ± 0.06** | 0.63 ± 0.08** | 0.99 ± 0.68
Leu-Hyp [Comparative Example 3] | 1.08 ± 0.00 | 1.04 ± 0.06 | 0.58 ± 0.01*** | 0.89 ± 0.09* | 0.69 ± 0.58 | 0.87 ± 0.63
Gly-Pro [Example 3] | 0.36 ± 0.12** | 2.56 ± 0.22*** | 2.15 ± 0.02** | 2.18 ± 0.00*** | 7.21 ± 0.95*** | 3.08 ± 0.99**
N[C@@H](CCC(=O)O)C(=O)O [Comparative Example 11, L-glutamic acid] | 1.00 ± 0.02** | 0.65 ± 0.01** | 0.40 ± 0.01** | 0.85 ± 0.11 | 0.77 ± 0.04* | 1.06 ± 0.24
Ala-Hyp [Comparative Example 2] | 1.23 ± 0.03* | 1.00 ± 0.06 | 0.48 ± 0.02*** | 1.01 ± 0.00 | 0.98 ± 0.95 | 0.99 ± 0.66
Pro-[Hyp]-Gly [Example 5] | 0.53 ± 0.00 | 3.81 ± 0.17*** | 5.36 ± 0.01*** | 1.75 ± 0.22* | 5.32 ± 0.69*** | 2.45 ± 0.90**
Gly-Pro-[Hyp] [Comparative Example 1] | 1.05 ± 0.11 | 0.94 ± 0.10 | 0.98 ± 0.05 | 0.95 ± 0.08 | 1.08 ± 0.21 | 0.98 ± 0.45
Glu-Hyp [Example 6] | 0.65 ± 0.02 | 3.48 ± 0.05*** | 2.12 ± 0.01*** | 1.95 ± 0.08** | 3.26 ± 1.61** | 2.35 ± 0.85**
